US10233184B2, “7-substituted sulfonimidoylpurinone compounds and derivatives for the treatment and prophylaxis of virus infection” (Hoffmann-La Roche Inc., priority 2016, dated 2019)
≈ marks a conversion by molar mass, not a printed value. Where “and” joins values, the source holds several entries; their conditions need not be identical. Identical values can stand only once. Like-named read-outs stand apart in the source and are kept apart here.

Experiments:
[1] = target: T1, human TLR7 (Homo sapiens, UniProt Q9NYK1); assay: HEK293-Blue-hTLR-7 cells assay (SEAP reporter); format: cell-based; settings: for EC50: HEK293-Blue-hTLR-7 cells, SEAP reporter, 20 hrs; for Ratio (EC50(prodrug)/EC50(active form)): EC50 of prodrug over EC50 of corresponding active form
T1 sequence (Q9NYK1 27-1049): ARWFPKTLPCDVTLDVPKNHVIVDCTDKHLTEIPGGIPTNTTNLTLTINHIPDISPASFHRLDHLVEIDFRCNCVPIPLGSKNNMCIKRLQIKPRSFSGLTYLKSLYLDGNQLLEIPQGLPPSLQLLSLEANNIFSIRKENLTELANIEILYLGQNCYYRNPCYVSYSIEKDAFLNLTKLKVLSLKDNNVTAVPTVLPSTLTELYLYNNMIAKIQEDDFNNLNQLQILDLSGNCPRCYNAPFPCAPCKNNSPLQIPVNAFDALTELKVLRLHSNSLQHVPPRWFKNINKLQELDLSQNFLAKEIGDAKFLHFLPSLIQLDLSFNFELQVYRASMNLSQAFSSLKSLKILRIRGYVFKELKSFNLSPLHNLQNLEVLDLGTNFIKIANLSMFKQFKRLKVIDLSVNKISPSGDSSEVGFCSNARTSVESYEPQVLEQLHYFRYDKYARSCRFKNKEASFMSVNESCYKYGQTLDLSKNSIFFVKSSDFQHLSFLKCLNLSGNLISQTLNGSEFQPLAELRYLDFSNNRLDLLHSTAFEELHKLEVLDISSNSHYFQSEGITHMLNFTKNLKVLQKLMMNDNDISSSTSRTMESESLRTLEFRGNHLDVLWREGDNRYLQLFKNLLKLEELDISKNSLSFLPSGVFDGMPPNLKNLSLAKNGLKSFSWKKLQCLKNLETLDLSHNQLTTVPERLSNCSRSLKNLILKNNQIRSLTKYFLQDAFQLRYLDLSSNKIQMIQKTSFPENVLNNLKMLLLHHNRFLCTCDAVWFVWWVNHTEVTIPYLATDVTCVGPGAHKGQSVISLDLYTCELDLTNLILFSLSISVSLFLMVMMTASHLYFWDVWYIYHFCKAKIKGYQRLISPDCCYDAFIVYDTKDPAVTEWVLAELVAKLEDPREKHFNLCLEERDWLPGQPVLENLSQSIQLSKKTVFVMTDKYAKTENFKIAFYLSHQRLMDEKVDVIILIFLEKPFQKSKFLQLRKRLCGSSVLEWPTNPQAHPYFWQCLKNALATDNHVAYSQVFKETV
Method in brief: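 HEK293-Blue-hTLR7 cells with NF-κB/AP-1-driven SEAP reporter exposed to serially diluted compound (1% DMSO) for 20 hrs at 37° C. Supernatant SEAP measured with QUANTI-Blue after 2 hrs at 37° C, absorbance 620~655 nm; agonism expressed as EC50.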

[2] = Single dose PK study in male Wister-Han rats; format: in vivo; settings: 5 mg/kg oral dosing of active form; for concentration at 7 h: 7 hrs (footnote), read-out: Mean plasma concentration (nM), 7 hrs (row 8*)
Procedure: The single dose PK in Male Wister-Han Rats was performed to assess pharmacokinetic properties of tested compounds. Two groups of animals were dosed via Gavage (POE) of the respective compound. […] Blood samples were placed into tubes containing EDTA-K2 anticoagulant and centrifuged at 5000 rpm for 6 min at 4° C. to separate plasma from the samples. After centrifugation, the resulting plasma was transferred to clean tubes for bioanalysis of both prodrug and active form on LC/MS/MS. In the groups that prodrug were dosed, the concentration of prodrugs in the plasma samples was under the detection limit. The “tested compound” in Table 8 was used as the internal standard for testing the metabolite (active form) of “dose compound” in vivo. The pharmacokinetic parameters were calculated using non-compartmental module of WinNonlin® Professional 6.2. The peak concentration (Cmax) was recorded directly from experimental observations. The area under the plasma concentration-time curve (AUC0-t) was calculated using the linear trapezoidal rule up to the last detectable concentration. Cmax and AUC0-last are two critical PK parameters related to the in vivo efficacy of the tested compound. Compounds with higher Cmax and AUC0-last will lead to the better in vivo efficacy.

[3] = LYSA solubility study; format: physicochemical; settings: for solubility thermodynamic: phosphate buffer, pH 6.5, aqueous buffer, thermodynamic from solid
Method in brief: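 Samples from 10 mM DMSO stock were dried, redissolved in 0.05M phosphate buffer pH 6.5, stirred 1 h, shaken 2 h, left overnight and filtered. Filtrate and 1/10 dilution quantified by HPLC-UV; solubility in μg/mL, reported as greater-than when >80% of the maximum sample amount was in solution.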

[4] = Portal vein study: oral PK in PVC/CAC dual cannulated rat; format: in vivo; settings: prodrug 10 mg/kg oral, analyte prodrug
Procedure: Surgery was performed under pentobarbital/isoflurane anesthesia. Briefly, after disinfecting the abdominal area with betadine and 70% isopropyl alcohol, a small abdominal mid-line incision was made. The cecum was pulled out and mesenteric vein was identified and isolated for about 5 mm vessel. A loose ligature was placed proximally and distal end of the vein was ligated. Make a small incision (just enough to allow the insertion of the catheter) on isolated vein and insert the PU catheter towards liver for appropriate length. The catheter was secured in place by tying the loose ligature around the cannulated vessel. The cecum was replaced into abdominal cavity. A hole was made in the right abdominal wall to make the end of catheter pass freely. The catheter was secured by suture on the abdominal wall. The abdominal muscle incision was closed with suture. A small incision was made in the scapular area to serve as the exit site of the catheter. The catheter was subcutaneously tunneled and exteriorized through the scapular incision. A fixed suture was placed in the scapular region. The patency of the catheter was checked and then exteriorized from the subcutaneous space to the dorsal neck region. After gently wiping the area, the abdominal cavity was sutured. The left carotid artery was then cannulated by inserting a PESO catheter. Both the exteriorized catheters were tied firmly on the dorsal neck region and fixed. The animals was then allowed to recover in its cage and used for study at least 3 days after surgery. All catheters were flushed once daily with heparinized saline to maintain patency. Animals were fasted overnight (n=3) and administered vial oral gavage (10 mg/kg, 10 mL/kg). Blood samples (60 μL) were collected simultaneously from the portal and carotid artery catheters at 0.083, 0.25, 0.5, 1, 2, 4, 7, 24 h. All blood samples will be transferred into microcentrifuge tubes containing 2 μL of K2EDTA (0.5M) as anti-coagulant and placed on wet ice. Then blood samples will be processed for plasma by centrifugation at approximately 4° C., 3000 g within half an hour of collection. Plasma samples will be stored in polypropylene tubes, quick frozen over dry ice and kept at −70±10° C. until LC/MS/MS analysis. Pharmacokinetic parameters (mean±SD, n=3) of prodrugs and active forms in portal and carotid samples following oral administration of prodrugs (10 mg/kg) in portal vein cannulated rat were detected and analyzed.

[5] = active form, read-out: HEK293-hTLR-7 EC50 (Active form)
[6] = male, Wister-Han, rat, plasma, po, 5 mg/kg
[7] = 0.05M phosphate buffer pH 6.5, read-out: LYSA of Active Forms
[8] = aqueous solubility, 0.05M phosphate buffer pH 6.5
[9] = prodrug, read-out: HEK293-hTLR-7 EC50 (Prodrug)
[10] = 0.05M phosphate buffer pH 6.5, read-out: LYSA of Prodrugs

EC50 [1, 5]	AUC(0-t) [2, 6] [µM·h]	Cmax [2, 6] [nM]	concentration at 0.25 h [2, 6] [nM]	concentration at 0.5 h [2, 6] [nM]	concentration at 1 h [2, 6] [nM]	concentration at 2 h [2, 6] [nM]	concentration at 4 h [2, 6] [nM]	concentration at 7 h [2, 6] [nM]	solubility thermodynamic [3, 7] [µg/mL]	Ratio (EC50(prodrug)/EC50(active form)) [1]	EC50 [1, 9] [nM]	solubility thermodynamic [3, 10] [µg/mL]	SMILES	further results
71 nM	0.242	32.3	16.8	27.5	32.3	27.3	27.4	18	1 (≈ 2.73 µM)	–	–	–	CC[S@](=N)(=O)c1nc(N)c2[nH]c(=O)n(Cc3ccc(Cl)cc3)c2n1 (single isomer, unassigned) [Compound 41c-A]	concentration at 24 h [2, 6]: 5.6 nM
85 nM	0.0558	5.46	3.41	0.75	2.04	5.46	2.52	1.21	5 (≈ 13.6 µM)	–	–	–	CC[S@@](=N)(=O)c1nc(N)c2[nH]c(=O)n(Cc3ccc(Cl)cc3)c2n1 (single isomer, unassigned) [Compound 41c-B]	–
110 nM	0.077	15.2	12.6	15.2	13	12	8.2	6.31	13 (≈ 37.5 µM)	–	–	–	CC[S@@](=N)(=O)c1nc(N)c2[nH]c(=O)n(Cc3ccc(C)cc3)c2n1 (single isomer, unassigned) [Compound 43e-A]	–
390 nM and 260 nM	0.767	80	64.6	80	58.1	42.5	77.8	–	–	–	–	–	CCS(=N)(=O)c1nc(N)c2[nH]c(=O)n(Cc3ccc(F)cc3)c2n1 (single isomer, unassigned) [Compound 45e-A]	concentration at 8 h [2, 6]: 34.6 nM; concentration at 24 h [2, 6]: 8.6 nM; LYSA of Active Forms [3, 8]: 90 µg/mL
260 nM and 390 nM	–	–	–	–	–	–	–	–	–	–	–	–	CCS(=N)(=O)c1nc(N)c2[nH]c(=O)n(Cc3ccc(F)cc3)c2n1 (single isomer, unassigned) [Compound 45e-B]	AUC0-last [2]: 0.568 µM·h; Cmax [2]: 53.9 nM; concentration at 0.25 h ([2]; read-out: Mean plasma concentration (nM), 0.25 h): 42.8 nM; concentration at 0.5 h ([2]; read-out: Mean plasma concentration (nM), 0.5 h): 52.2 nM; concentration at 1 h ([2]; read-out: Mean plasma concentration (nM), 1 h): 37.6 nM; concentration at 2 h ([2]; read-out: Mean plasma concentration (nM), 2 h): 24.2 nM; concentration at 4 h ([2]; read-out: Mean plasma concentration (nM), 4 h): 53.9 nM; concentration at 8 h ([2]; read-out: Mean plasma concentration (nM), 8 h): 29 nM; concentration at 24 h ([2]; read-out: Mean plasma concentration (nM), 24 h): 5.7 nM; LYSA of Active Forms [3, 8]: 115 µg/mL
–	–	–	–	–	–	–	–	–	–	314.0	27000	–	CCCN(C)C(=O)n1c(=O)n(Cc2ccccc2)c2nc(S(=N)(=O)CCC)nc(N)c21 (single isomer, unassigned) [Example 1-B]	LYSA of Prodrugs [3, 8]: 200 µg/mL; AUC(0-t) ([4]; carotid artery plasma, read-out: AUC0-2 (nM · h), prodrug, Carotid sampling): 0.04 µM·h; Cmax ([4]; carotid artery plasma, read-out: Cmax (nM), prodrug, Carotid sampling): 70 nM; Tmax ([4]; carotid artery plasma, read-out: Tmax (h), prodrug, Carotid sampling): 0.083 h; AUC(0-t) ([4]; portal vein plasma, read-out: AUC0-2 (nM · h), prodrug, Portal sampling): 0.266 µM·h; Cmax ([4]; portal vein plasma, read-out: Cmax (nM), prodrug, Portal sampling): 670 nM; Tmax ([4]; portal vein plasma, read-out: Tmax (h), prodrug, Portal sampling): 0.083 h
–	–	–	–	–	–	–	–	–	–	750.8	48800	395 (≈ 705 µM)	CCCCN(C)C(=O)OCCN(C)C(=O)n1c(=O)n(Cc2ccccc2)c2nc(S(=N)(=O)CCC)nc(N)c21 (centres unmarked) [Example 29, 2-[[6-Amino-9-benzyl-8-oxo-2-(propylsulfonimidoyl)purine-7-carbonyl]-methyl-amino]ethyl N-butyl-N-methyl-carbamate]	–
–	–	–	–	–	–	–	–	–	–	346.2	22500	125 (≈ 229 µM)	CCCS(=N)(=O)c1nc(N)c2c(n1)n(Cc1ccccc1)c(=O)n2C(=O)N(C)CCOC(=O)N(CC)CC (centres unmarked) [Example 32, 2-[[6-Amino-9-benzyl-8-oxo-2-(propylsulfonimidoyl)purine-7-carbonyl]-methyl-amino]ethyl N,N-diethylcarbamate]	–
–	–	–	–	–	–	–	–	–	–	1673.7	31800	168 (≈ 366 µM)	CCCN(C)C(=O)n1c(=O)n(Cc2ccc(C)cc2)c2nc([S@@](=N)(=O)CCC)nc(N)c21 [Example 36-A, 6-Amino-N-methyl-8-oxo-N-propyl-2[S(S)-propylsulfonimidoyl]-9-(p-tolylmethyl)purine-7-carboxamide]	–
